Reference: BindingDB's records for doi:10.1111/cbdd.12280 (Universiti Kebangsaan Malaysia, Jalan Raja Muda Abdul Aziz, …, 2014)

Legend:
Prostaglandin E synthase = biological target: T1, Prostaglandin E synthase (Homo sapiens, UniProt O14684); assay: Microsomal prostaglandin E synthase-1 activity assay; conditions: pH 7; 20 °C
T1 sequence (O14684 whole entry): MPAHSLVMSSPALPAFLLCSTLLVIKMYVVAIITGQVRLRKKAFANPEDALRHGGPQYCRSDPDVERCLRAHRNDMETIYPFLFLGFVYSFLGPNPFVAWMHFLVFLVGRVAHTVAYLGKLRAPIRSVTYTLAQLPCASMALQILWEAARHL
Experimental: The assay buffer contained 100 mM KHPO4 (pH 7.0), 2 mM EDTA and 2.5 mM reduced GSH. 100 µL of reaction buffer containing human recombinant mPGES-1 was added to 96-well non-binding plate, followed by the addition of test samples to their respective wells. The reaction mixture was incubated for 30 min at 20 °C. […] The reaction was quenched by adding 20 µL of SnCl2 solution in 1 N HCl.

Phospholipase A2 group V = biological target: T2, Phospholipase A2 group V (Homo sapiens, UniProt P39877); assay: sPLA2-V activity assay; conditions: pH 8; 25 °C
T2 sequence (P39877 whole entry): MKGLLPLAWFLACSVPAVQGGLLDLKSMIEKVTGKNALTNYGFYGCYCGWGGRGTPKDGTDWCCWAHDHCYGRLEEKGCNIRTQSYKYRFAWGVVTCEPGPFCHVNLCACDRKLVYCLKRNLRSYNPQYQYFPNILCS
Experimental: Substrate 1,2-bis(heptanoylthio)-glycerophosphocholine and human recombinant PLA2-V were resuspended in assay buffer, and DTNB was dissolved in an aqueous solution of Tris-HCl (pH 8).

[1] = biological target: T3, Prostaglandin G/H synthase 1 (Ovis aries, UniProt P05979); assay: Cyclooxygenase activity assay; conditions: pH 8; 37 °C
T3 sequence (P05979 whole entry): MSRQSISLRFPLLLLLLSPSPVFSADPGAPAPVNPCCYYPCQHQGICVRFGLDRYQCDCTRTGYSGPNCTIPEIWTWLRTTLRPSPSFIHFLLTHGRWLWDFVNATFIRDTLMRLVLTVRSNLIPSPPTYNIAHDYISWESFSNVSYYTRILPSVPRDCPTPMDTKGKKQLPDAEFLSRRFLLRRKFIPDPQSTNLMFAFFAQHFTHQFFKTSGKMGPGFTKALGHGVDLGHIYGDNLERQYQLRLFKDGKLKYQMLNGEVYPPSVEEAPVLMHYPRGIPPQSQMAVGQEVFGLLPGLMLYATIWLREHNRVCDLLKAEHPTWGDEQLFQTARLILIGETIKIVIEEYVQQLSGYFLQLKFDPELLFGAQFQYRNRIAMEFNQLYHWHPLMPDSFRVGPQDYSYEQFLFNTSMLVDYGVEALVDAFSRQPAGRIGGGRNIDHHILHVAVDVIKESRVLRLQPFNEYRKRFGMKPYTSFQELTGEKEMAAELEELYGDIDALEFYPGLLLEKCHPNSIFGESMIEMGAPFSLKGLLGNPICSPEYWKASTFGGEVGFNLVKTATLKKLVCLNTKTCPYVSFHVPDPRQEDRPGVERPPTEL
Experimental: (§1) Reaction mixture containing 100 mM Tris-HCl buffer (pH 8) and COX-1 (ovine) or COX-2 (human recombinant) was preincubated for 10 min in a water bath at 37 °C. The reaction was initiated by the addition of 10 µL arachidonic acid (final concentration 100 µM). After 2 min, the reaction was terminated by adding 1 M HCl. Test compounds were dissolved in DMSO and diluted to the desired concentration with potassium phosphate buffer of pH 7.4.

Lipoxygenase = biological target: T4, Lipoxygenase (Glycine max, UniProt Q43440); assay: Lipo-oxygenase activity assay; conditions: pH 7; 25 °C
T4 sequence (Q43440 whole entry): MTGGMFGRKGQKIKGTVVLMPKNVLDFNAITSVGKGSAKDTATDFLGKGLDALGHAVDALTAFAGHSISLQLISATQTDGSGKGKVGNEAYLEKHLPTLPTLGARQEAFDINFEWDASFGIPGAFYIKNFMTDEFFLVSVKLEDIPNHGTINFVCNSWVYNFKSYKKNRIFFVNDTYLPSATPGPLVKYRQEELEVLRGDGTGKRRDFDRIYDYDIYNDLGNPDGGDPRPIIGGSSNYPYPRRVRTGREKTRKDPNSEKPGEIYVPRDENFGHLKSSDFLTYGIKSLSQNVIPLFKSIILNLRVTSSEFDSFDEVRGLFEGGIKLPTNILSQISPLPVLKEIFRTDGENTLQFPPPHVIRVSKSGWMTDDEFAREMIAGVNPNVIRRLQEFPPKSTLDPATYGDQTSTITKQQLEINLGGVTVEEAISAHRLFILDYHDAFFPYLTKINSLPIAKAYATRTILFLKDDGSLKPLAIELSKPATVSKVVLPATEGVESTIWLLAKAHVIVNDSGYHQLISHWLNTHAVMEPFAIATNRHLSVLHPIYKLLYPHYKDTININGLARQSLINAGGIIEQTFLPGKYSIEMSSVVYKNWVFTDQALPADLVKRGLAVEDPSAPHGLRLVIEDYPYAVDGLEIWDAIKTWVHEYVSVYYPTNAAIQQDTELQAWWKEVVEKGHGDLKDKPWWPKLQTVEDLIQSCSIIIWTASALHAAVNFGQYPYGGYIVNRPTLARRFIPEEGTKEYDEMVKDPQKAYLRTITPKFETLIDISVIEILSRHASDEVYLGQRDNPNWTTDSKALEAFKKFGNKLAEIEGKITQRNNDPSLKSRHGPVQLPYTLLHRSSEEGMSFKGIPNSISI
Experimental: The assay was progressed in 96-well microliter plates containing substrate, soybean LOX enzyme, and respective test substance at room temperature in a 0.1 M Tris-HCl buffer solution at pH 7. The reaction was initiated by the addition of substrate solution to all wells and incubated for 5 min, followed by the addition of 100 µL of chromogen solution to all wells to stop enzyme catalysis and incubated for 5 min. The absorbance was measured at 490 nm. Dimethyl sulphoxide served as a negative control.

[2] = biological target: T5, Prostaglandin G/H synthase 2 (Homo sapiens, UniProt P35354); assay: Cyclooxygenase activity assay; conditions: pH 8; 37 °C
T5 sequence (P35354 whole entry): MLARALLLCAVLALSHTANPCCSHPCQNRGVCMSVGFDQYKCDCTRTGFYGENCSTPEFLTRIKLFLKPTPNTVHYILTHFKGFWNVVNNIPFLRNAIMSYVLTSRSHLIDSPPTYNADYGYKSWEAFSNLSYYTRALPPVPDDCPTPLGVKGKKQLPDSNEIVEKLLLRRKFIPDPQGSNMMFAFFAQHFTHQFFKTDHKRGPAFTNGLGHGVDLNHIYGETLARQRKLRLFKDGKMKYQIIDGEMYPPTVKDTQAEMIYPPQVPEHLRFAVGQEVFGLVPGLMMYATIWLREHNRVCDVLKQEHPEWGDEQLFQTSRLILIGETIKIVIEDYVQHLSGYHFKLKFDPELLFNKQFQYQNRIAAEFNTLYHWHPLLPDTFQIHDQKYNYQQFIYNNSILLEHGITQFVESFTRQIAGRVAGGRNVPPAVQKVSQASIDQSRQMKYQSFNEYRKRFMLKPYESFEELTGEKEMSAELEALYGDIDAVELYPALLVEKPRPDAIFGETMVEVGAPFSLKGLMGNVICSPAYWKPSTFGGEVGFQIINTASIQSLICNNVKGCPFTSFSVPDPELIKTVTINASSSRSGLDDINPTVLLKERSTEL
Experimental: as §1

| IC50 (Prostaglandin E synthase) [µM] | IC50 (Phospholipase A2 group V) [µM] | IC50 [1] [µM] | IC50 (Lipoxygenase) [µM] | IC50 [2] [µM] | SMILES |
| --- | --- | --- | --- | --- | --- |
| 8.95 | 53.3 | 43.2 |  |  | CC(C)(C)c1ccc(/C=C2\CCC/C(=C\c3ccc(C(C)(C)C)cc3)C2=O)cc1 [(2E,6E)‐2,6‐bis[(4‐tert‐ butylphenyl)methylidene]cyclohexan‐1‐one (2)] |
| 2.41 | 12.1 | 38.5 |  |  | CCN(CC)c1ccc(/C=C2\CCC/C(=C\c3ccc(N(CC)CC)cc3)C2=O)cc1 [2,6-Bis(4-diethyl-aminobenzylidene)cyclohexanone (5)] |
|  | 0.61 |  |  |  | C[C@@H]1C[C@H]2[C@@H]3CCC4=CC(=O)C=C[C@]4(C)[C@@]3(F)[C@@H](O)C[C@]2(C)[C@@]1(O)C(=O)CO [dexamethasone (tetramethyl-rhodamine conjugated )] |
| 5.48 | 10.2 | 32 | 56.8 |  | CCN(CC)c1ccc(/C=C2\CC/C(=C\c3ccc(N(CC)CC)cc3)C2=O)cc1 [2,5-Bis(4-diethylaminobenzylidene)cyclopentanone (17)] |
| 14.8 | 10.4 | 41.5 | 62.9 | 70.7 | COc1cccc(/C=C/C(=O)/C=C/c2cccc(OC)c2OC)c1OC [(1Z,4Z)–1-5-Bis[2,3(dimethoxy)phenyl]-1,4-pentadien-3-one (9)] |
| 6.98 | 16.1 | 37.7 | 95.1 | 94.9 | CCN(CC)c1ccc(/C=C/C(=O)/C=C/c2ccc(N(CC)CC)cc2)cc1 [(1E,4E)‐1,5‐bis[4‐(diethylamino)phenyl]penta‐1,4‐ dien‐3‐one (11)] |
| 7.48 |  | 320 |  |  | CC(C=C1CCC(=CC(C)c2ccccc2)C1=O)c1ccccc1 (stereo not drawn) [(2E,5E)‐2,5‐bis(2‐phenylpropylidene)cyclopentan‐1‐ one (16)] |
| 20.3 | 94.7 | 194 |  |  | CC(C=C1CCCC(=CC(C)c2ccccc2)C1=O)c1ccccc1 (stereo not drawn) [(2E,6E)‐2,6‐bis(2‐phenylpropylidene)cyclohexan‐1‐ one (4)] |
| 24.5 | 83.2 | 60 |  |  | CC(C)(C)c1ccc(/C=C2\CC/C(=C\c3ccc(C(C)(C)C)cc3)C2=O)cc1 [(2E,5E)‐2,5‐bis[(4‐tert‐butyl‐2‐ methylphenyl)methylidene]cyclopentan‐1‐one (14)] |
| 37 | 51.9 | 53.2 |  |  | CC(C)(C)c1ccc(/C=C/C(=O)/C=C/c2ccc(C(C)(C)C)cc2)cc1 |
| 10.4 | 16.4 | 40.2 | 63.8 |  | COc1cccc(/C=C2\CC/C(=C\c3cccc(OC)c3OC)C2=O)c1OC [(2E,5E)‐2,5‐bis[(2,3‐ dimethoxyphenyl)methylidene]cyclopentan‐1‐one (15)] |
|  |  |  | 9.23 |  | CC(Cc1ccc(O)c(O)c1)C(C)Cc1ccc(O)c(O)c1 (stereo not drawn) [LOX inhibitor, N/A] |
| 60.7 | 125 | 195 |  |  | CC(C=CC(=O)C=CC(C)c1ccccc1)c1ccccc1 (stereo not drawn) [(3E,6E)‐2,8‐diphenylnona‐3,6‐dien‐5‐one (10)] |
| 7.34 | 11 | 33.3 | 47.8 | 53.2 | COc1cccc(/C=C2\CCC/C(=C\c3cccc(OC)c3OC)C2=O)c1OC [2,6-Bis(2,3-dimethoxybenzylidene)cyclohexanone (3)] |

| SMILES | IC50 (Prostaglandin E synthase) [µM] | IC50 (Phospholipase A2 group V) [µM] | IC50 [1] [µM] | IC50 (Lipoxygenase) [µM] | IC50 [2] [µM] |
| --- | --- | --- | --- | --- | --- |
| COc1cc(C=CC(=O)CC(=O)C=Cc2ccc(O)c(OC)c2)ccc1O [(1E,6E)-1,7-bis(4-hydroxy-3-methoxyphenyl)hepta-1,6-diene-3,5-dione] | 4.88 |  | 31.3 | 57.8 |  |
